Entries after “also recorded” stand apart in the source; their conditions may differ.
Assays:
[1] = system: hepatic CRL (cullin) neddylation and hepatic insulin signaling; assay: Western blot of liver lysates after acute MLN4924 injection; format: in vivo; settings: chow-fed mice, 6 h fast; for hepatic CRL (cullin) neddylation: 60 mg/kg at 5 pm day 1 and 9 am day 2 (IP or SQ)
Description: A. Western blot of liver lysates. Chow-fed male C56BL/6J mice were injected with 60 mg/kg MLN4924 or Vehicle (10% 2HO-β-cyclodextrin) at 5 pm on day 1 and 9 am on day 2, and sacrificed at 3 pm after 6 h fast. Upper arrow: Neddylated Cul3; Lower arrow: de-neddylated Cul3. Veh=vehicle; IP=intraperitoneal; SQ=subcutaneous.
FIG. 12A is a Western blot showing that MLN4924 inhibits liver cullin neddylation and increases IRS protein abundance and insulin signaling activation. Chow-fed male C56BL/6J mice were subcutaneously (SQ) injected 60 mg/kg MLN4924 or Veh (10 % 2HO-β-cyclodextrin) at 5 pm on day 1 and 9 am on day 2. Mice were fasted from 9 am to 3 pm on day 2 and sacrificed. Upper and lower arrows indicate neddylated cullin1 and cullin3 bands, respectively.
(§1) MLN4924 and TAS4464 were purchased from MedChemExpress (MCE, Monmouth Junction, NJ). For cell treatment, MLN4924 and TAS4464 were dissolved in DMSO. Cells were serum starved overnight and then treated with MLN4924, TAS4464 and/or insulin as indicated. For injection in mice, MLN4924 and TAS4464 were first dissolved in DMSO, which was further suspended in 10% (2-hydroxypropyl)-β-cyclodextrin (Sigma, St. Louis, MO). The final solution contains 1% DMSO. The subcutaneous injection volume is 200 µl/mouse.
Protein lysates were prepared in RIPA buffer containing 1% SDS and protease inhibitors on ice for 1 h followed by brief sonication. After centrifugation, supernatant was used for SDS-PAGE and immunoblotting.
WT male C57BL/6J mice were purchased from the Jackson Lab (Bar Harbor, ME). Western diet (TD. 88137, Envigo Inc. Indianapolis, IN) contains 42% fat calories and 0.2% cholesterol. Mice were housed in micro-isolator cages with corn cob bedding under 7 am - 7 pm light cycle and 7 pm -7 am dark cycle. MLN4924 was prepared in 10% 2-hydroxypropyl-b-cyclodextrin to a final concentration of 3 mg/ml. All mice were fasted for 6 h from 9 am to 3 pm before euthanasia. All animals received humane care according to the criteria outlined in the “Guide for the Care and Use of Laboratory Animals.” All animal protocols were approved by the Institutional Animal Care and Use Committee at the University of Kansas Medical Center and the University of Oklahoma Health Sciences Center.
Human normal livers (less than 5% steatosis) and histologically confirmed NASH livers were obtained from either the University of Kansas Liver Center or the Liver Tissue Cell Distribution System (LTCDS) at the University of Minnesota. Human and mouse tissue samples were homogenized in 1XRIPA buffer containing 1% SDS and protease inhibitors. After incubation on ice for 1 hour, the samples were centrifugation and supernatant was transferred to a new tube. The protein lysate was mixed with equal volume of 2X laemmli buffer and incubated at 95° C. for 5 minutes and used for SDS-PAGE and immunoblotting. ImageJ software (NIH) was used to determine band intensity.
To further explore the hepatic insulin sensitizing effect of neddylation inhibition in vivo, we administered MLN4924 to chow-fed mice twice via subcutaneous (SQ) injection (5 pm on day 1 and 9 am on day 2) and studied the acute effect of MLN4924. The dose of 60 mg/kg is in line with published literature. […] In addition to liver, skeletal muscle is another organ that quantitatively contribute to plasma glucose homeostasis.

[2] = system: male C57BL/6J mice fed C or WD; assay: Prevention experiment: MLN4924 twice/week during 16 weeks of WD feeding; format: in vivo
Description: Mice fed WD became obese and insulin resistant. For both cohorts, body weight was measured weekly. Male C57BL/6J mice were fed C or WD for 16 weeks. Vehicle or MLN4924 (60 mg/kg) was administered via SQ injection twice/week for 16 weeks. Results are mean ±SEM. n=5-7. “*”, vs C+Veh; “#”, vs. WD+Veh, p<0.05.
Male C57BL/6J mice were purchased from the Jackson Laboratory (Bar Harbor, ME). Mice were fed a regular chow (C) diet or a Western diet (WD) that contains 42% fat calories and 0.2% cholesterol content (TD. 88137, Envigo Inc. Indianapolis, IN).
as §1
Lipids were extracted in a mixture of chloroform: methanol (2:1; v: v), dried under nitrogen, and resuspended in isopropanol containing 1% triton X-100. Total cholesterol, free cholesterol and TG were measured with assay kits following the manufacturer’s instruction. Total cholesterol assay kit and TG assay kit were purchased from Pointe Scientific (Canton, MI).
Aspartate aminotransferase (AST) and alanine aminotransferase (ALT) assay kits were purchased from Pointe Scientific (Canton, MI). Free fatty acid assay kit was purchased from Biovision Inc. (Milpitas, CA). Insulin ELISA kit was purchased from Crystal Chem Inc. (Elk Grove Village, IL).
Next investigated was the glucose lowering effect of CRL inhibition in mice rendered obese and insulin resistant by 16-weeks of WD feeding. […] Next conducted was an intervention study in which MLN4924 treatment was initiated after mice were fed WD for 8 weeks that rendered mice obese and insulin resistant. […] In summary, robust evidence is provided herein that pharmacological CRL inhibition is an effective approach to lowering hyperglycemia.

high fat diet-fed mice = settings: i.p. injection; cited from earlier work
[3] = WD 16 weeks, 60 mg/kg SQ twice/week

NS(=O)(=O)OC[C@@H]1C[C@@H](n2ccc3c(N[C@H]4CCc5ccccc54)ncnc32)C[C@@H]1O [MLN4924, ((1S,2S,4R)-4-(4-((1S)-2,3-dihydro-1H-inden-1-ylamino)-7H-pyrrolo[2,3-d]pyrimidin-7-yl)-2-hydroxycyclopentyl) methyl sulfamate]
hepatic CRL (cullin) neddylation ([1]; 60 mg/kg): effectively reduced hepatic CRL neddylation | hepatic CRL (cullin) neddylation ([1]; listed as MLN4924, 60 mg/kg): effectively reduced hepatic cullin neddylation | hepatic Y612 phosphorylated IRS1 ([1]; 60 mg/kg twice): increased Y612 phosphorylated IRS1 | hepatic IRS1 and IRS2 protein ([1]; 60 mg/kg twice, 60 mg/kg): rapidly increased hepatic IRS1 and IRS2; also recorded: increased hepatic IRS proteins | hepatic phosphorylated AKT ([1]; 60 mg/kg twice, 60 mg/kg): higher phosphorylated AKT; also recorded: increased hepatic IRS proteins and AKT phosphorylation | tolerability / hepatotoxicity ([2]; 16 weeks of MLN4924, 60 mg/kg SQ twice/week): well tolerated and did not cause hepatotoxicity | transaminase (ALT) elevation ([2]; C-fed mice, after 16 weeks of MLN4924): did not cause transaminase (ALT) elevation | blood glucose (6 h fast) [2, 3]: completely normalized blood glucose | reduction of hepatic cholesterol [2, 3]: ~ 30% | reduction of hepatic triglycerides (TG) [2, 3]: ~ 40% | serum ALT ([2]; WD-fed mice, 16 weeks of MLN4924): significantly reduced | obesity (high fat diet-fed mice): significantly reduces obesity

From patent US20230218654A1, “COMPOSITIONS AND METHODS FOR TREATING HYPERGLYCEMIA IN TYPE-2 DIABETES” (The Board of Regents of the university of Oklahoma, priority 2020, published 2023)
